Reference: publication PMC4897634, “Design of an α-helical antimicrobial peptide with improved cell-selective and potent anti-biofilm activity” (Scientific Reports, 2016)
Where no end group is shown, it is not given here.

Columns and labels:
[1] = tested on: Acinetobacter baumannii; assay: MIC against biofilm-producing clinical isolate; format: cell-based; conditions: biofilm-producing strain, broth microdilution as for the other strains
Description: The antibacterial activities of the peptides against three Gram-negative bacteria and three Gram-positive bacteria strains were measured using a modified version of the Clinical Laboratory and Standards Institute (CLSI) broth microdilution method as described previously. Three Gram-negative bacteria, Escherichia coli (1.8732), Pseudomonas aeruginosa (1.2421), and Klebsiella pneumonia (1.1736), and three Gram-positive bacteria, Staphylococcus aureus (1.8721), Staphylococcus epidermidis (1.4260), and Bacillus subtilis (1.3376), were purchased from the China General Microbiological Culture Collection Centre (CGMCC). […] After incubation at 37 °C for 18 to 20 hours, the absorbance of each well was recorded using a multi-well microplate reader (SpectraMax M5; Molecular Devices, Sunnyvale, CA, USA) at 600 nm. […]
Biofilm attachment assays against Acinetobacter baumannii were performed using a previously described method with some modifications. […] The MICs of AMPs against A. baumannii were evaluated as described above. […] The wells were allowed to dry, and the crystal violet-stained well was re-solubilized with 200 μl of 95% ethanol and shaken for 10 min followed by measurement of the absorbance at 595 nm on a microplate reader (SpectraMax M5; Molecular Devices, Sunnyvale, CA, USA). […]

[2] = tested on: Gram-negative bacteria; format: cell-based, E. coli, P. aeruginosa, K. pneumoniae; conditions: ratio of MHC to GM, Gram-negative bacteria
Description: (§1) The antimicrobial activities of the peptides, indicated by the minimum inhibitory concentrations (MIC), were determined against a range of Gram-negative (Table 3) and Gram-positive bacterial strains (Table 4). The geometric mean of MIC values (GM) from the three strains was calculated to provide an overall evaluation of antimicrobial activity.
(§2) The therapeutic index (TI) is defined as the ratio of the minimum haemolytic concentration (MHC) of peptides to the GM of peptides, and this value was used to evaluate cell selectivity of peptides towards the negatively charged region of bacterial cell membranes over the zwitterionic mammalian cell membranes.
(§3) The antibacterial activities of the peptides against three Gram-negative bacteria and three Gram-positive bacteria strains were measured using a modified version of the Clinical Laboratory and Standards Institute (CLSI) broth microdilution method as described previously. Three Gram-negative bacteria, Escherichia coli (1.8732), Pseudomonas aeruginosa (1.2421), and Klebsiella pneumonia (1.1736), and three Gram-positive bacteria, Staphylococcus aureus (1.8721), Staphylococcus epidermidis (1.4260), and Bacillus subtilis (1.3376), were purchased from the China General Microbiological Culture Collection Centre (CGMCC). Briefly, bacteria were grown in liquid LB medium (tryptone, 10 g/L, yeast extract, 5 g/L and NaCl, 10 g/L) at 37 °C to mid-log phase, and the bacteria were diluted to 1 × 10^6 colony-forming units (CFU)/ml. The peptides were serially diluted with phosphate-buffered saline (PBS), and 50 μl diluted peptides were added to 50 μl of the bacterial suspension in 96-well plate (Corning Inc., Lowell, MA, USA). After incubation at 37 °C for 18 to 20 hours, the absorbance of each well was recorded using a multi-well microplate reader (SpectraMax M5; Molecular Devices, Sunnyvale, CA, USA) at 600 nm. The lowest concentration at which the peptide inhibited complete growth of the bacteria was taken as the minimal inhibitory concentration (MIC).

[3] = tested on: L929 mouse fibroblast cells; assay: Cytotoxicity, MTT assay; format: cell-based; conditions: 1 hour
Description: The toxicity of the peptides against L929 mouse fibroblast cells was assessed by a standard MTT assay. L929 mouse fibroblast cells from ATCC (Manassas, VA, USA) were maintained in our laboratory. L929 cells were cultured in RPMI 1640 supplemented with 10% (v/v) FBS, 2 mM L-glutamine, 100 U/ml penicillin and […] streptomycin and maintained in a humidified incubator with 5% CO2 at 37 °C. L929 cells (5 × 10^3cells/well) were seeded in 96-well plates (Corning Inc., Lowell, MA, USA) and incubated overnight. Diluted peptides were added to L929 cells and incubated for 1 hour. Then, 20 μl of MTT (5 mg/ml) solution was added and incubated for 4 hours. The medium was removed, and 150 μl of DMSO was added to each well to dissolve the formazan crystals. The absorbance was measured at 490 nm on a microplate reader (SpectraMax M5; Molecular Devices, Sunnyvale, CA, USA). Cell viabilities were calculated by using the equation (3): […]

[4] = tested on: Escherichia coli (1.8732); assay: Antimicrobial activity, broth microdilution MIC; format: cell-based; conditions: modified CLSI broth microdilution, LB medium, 1 × 10^6 CFU/ml, 37 °C, 18 to 20 hours, absorbance 600 nm
Description: as §3

[5] = tested on: Staphylococcus aureus (1.8721); assay: Antimicrobial activity, broth microdilution MIC; format: cell-based; conditions: modified CLSI broth microdilution, LB medium, 1 × 10^6 CFU/ml, 37 °C, 18 to 20 hours, absorbance 600 nm
Description: as §3

[6] = tested on: Bacillus subtilis (1.3376); assay: Antimicrobial activity, broth microdilution MIC; format: cell-based; conditions: modified CLSI broth microdilution, LB medium, 1 × 10^6 CFU/ml, 37 °C, 18 to 20 hours, absorbance 600 nm
Description: as §3

[7] = tested on: Klebsiella pneumonia (1.1736); assay: Antimicrobial activity, broth microdilution MIC; format: cell-based; conditions: modified CLSI broth microdilution, LB medium, 1 × 10^6 CFU/ml, 37 °C, 18 to 20 hours, absorbance 600 nm
Description: as §3

[8] = tested on: Staphylococcus epidermidis (1.4260); assay: Antimicrobial activity, broth microdilution MIC; format: cell-based; conditions: modified CLSI broth microdilution, LB medium, 1 × 10^6 CFU/ml, 37 °C, 18 to 20 hours, absorbance 600 nm
Description: as §3

[9] = tested on: Pseudomonas aeruginosa (1.2421); assay: Antimicrobial activity, broth microdilution MIC; format: cell-based; conditions: modified CLSI broth microdilution, LB medium, 1 × 10^6 CFU/ml, 37 °C, 18 to 20 hours, absorbance 600 nm
Description: as §3

[10] = tested on: human erythrocytes; assay: Haemolytic activity; format: cell-based; conditions: 37 °C, 30 min; for haemolysis rate: human erythrocytes, relative to 0.1% Triton X-100
Description: Haemolytic activity of the peptides was assayed by a standard procedure with slight modification. Fresh human erythrocytes were washed three times and resuspended at 1.25% haematocrit in PBS. Forty microlitres PBS-diluted peptide solution was added to a V-bottom 96-well plate (Corning Inc., Lowell, MA, USA), and 160 μl of erythrocytes was added. After incubation at 37 °C for 30 min, the samples were centrifuged, and the absorbance of the supernatant was measured at 450 nm using a multi-well microplate reader (SpectraMax M5; Molecular Devices, Sunnyvale, CA, USA) and compared with the 100% haemolysis caused by 0.1% Triton X-100. The percentage of haemolysis was calculated according to the equation (2): […]

[11] = tested on: Gram-positive bacteria; format: cell-based, S. aureus, S. epidermidis, B. subtilis; conditions: ratio of MHC to GM, Gram-positive bacteria
Description: as §1, §2, §3

Substance | MIC Acinetobacter baumannii [1] [µM] | TI, therapeutic index [2] | viability of treated L929 cells ([3]; 50 μM peptide) [%] | MIC E. coli [4] [µM] | MIC S. aureus [5] [µM] | MIC B. subtilis [6] [µM] | MIC K. pneumoniae [7] [µM] | MIC S. epidermidis [8] [µM] | MIC P. aeruginosa [9] [µM] | haemolysis rate ([10]; 100 μM peptide) [%] | TI, therapeutic index [11] | viability of treated L929 cells ([3]; 6.25 μM peptide) | haemolysis rate ([10]; 3.13 μM peptide) [%] | MHC, minimum haemolytic concentration ([10]; concentration causing 10% haemolysis of hRBC, 200 μM used when no haemolysis detectable at 100 μM) [µM]
RIGSILGRLAKGLPTLKSWIKNR-NH2 [A(A1R, A8R, I17K)] | 12.5 | 16 | 31.4 | 12.5 | 100 | 12.5 | 12.5 | 6.25 | 12.5 | 4.4 | 10.08 | – | – | –
AIGSILGALAKGLPTLISWIKNR-NH2 [AR-23, reference compound] | 12.5 | 0.2 | – | 25 | 6.25 | 3.13 | 12.5 | 3.13 | 12.5 | – | 0.79 | approximately 10% | 37.9 | 3.13
